Holding throughout (assay): inhibition of tumour cell growth, NCI panel, 48 h
Assay [1] has as its system HCC-2998 colon.
Assay [2] has as its system HL-60(TB) leukemia.
Assay [3] deals with HOP-62 NSCLC.
For assay [4], the system named is MOLT-4 leukemia.
In assay [5] the test system is NCI-H522 lung.
In assay [6] the test system is SNB-19 CNS.
In assay [7] the test system is UACC-257 melanoma.
For assay [8], the system named is UO-31 renal.
In assay [9] the test system is A549 NSCLC.
Assay [10] relates to SK-MEL-5 melanoma.

The structures appear in SMILES notation.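 Each compound was tested at five concentrations against cells in 96-well plates for 48 hours. GI50: concentration for 50% inhibition of growth. At the TGI there is no net growth.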

Consider `COC(=O)C1=C(O)C(C(=O)OC)[C@@]2(O)[C@@H](C(=O)OC)CC[C@@H]1[C@@H]2C(=O)OC` (stereo partly drawn), for which the TGI is 32.2 µM in assay [1]; 76.6 µM in assay [2]; 75.6 µM in [3]; above 100 µM in assay [4]; 52.4 µM in assay [5]; above 100 µM in assay [6]. For the same compound, the TGI in assay [7] and in assay [8] was above 100 µM each time.
Turning to `COc1cc(Cc2ccc3c(c2C#N)N(C)c2ccccc2S3)cc(OC)c1OC`, the TGI in assay [9], in assay [2], in assay [3], in [4], in assay [5] and in [6] was above 100 µM in each case. Besides, the TGI in assay [7] and in assay [8] was above 100 µM in each case.
Consider `C/C(=N\NC(=S)Nc1ccc(Cl)cc1)c1nc2ncccc2[nH]1`, for which the TGI in [9] is above 100 µM; in assay [1], 21.1 µM; in assay [2], above 100 µM; in assay [3], 18.1 µM; in assay [4] it was 22.2 µM; in assay [5], 20.2 µM. The TGI in assay [10] was 6.5 µM; in assay [6], above 100 µM; in [7] it was 7.75 µM; in assay [8], 5.13 µM.
For `CN(CCO)/N=N/c1nc[nH]c1C(N)=O`, the TGI in assay [9], in assay [1], in [2], in [3], in [4] and in assay [5] was above 100 µM in each case. Also, the TGI in assay [10], in assay [6] and in assay [7] was above 100 µM in each case.
As for `CCOC(=O)Oc1ccc2c(c1)c(=O)c1c(NCCCN(CC)CC)ccc3nnn2c31`, the TGI was 16.9 µM in assay [9]; 21.8 µM in assay [1]; 12.5 µM in [3]; above 100 µM in assay [4]; 19.7 µM in assay [5]; 23.2 µM in assay [10]. The TGI in [6] is 19.5 µM; in [7], 29.8 µM; in assay [8], 15 µM.
Consider `Cc1nc(N(CCO)CCO)c2sc(=S)n(-c3ccccc3)c2n1`, for which the TGI in assay [9], in assay [1], in [2], in [3], in assay [4] and in assay [5] was above 100 µM each time. Besides, the TGI in [10], in assay [6], in [7] and in [8] was above 100 µM in each case.
Consider `NC(=S)N/N=C/c1ccc(OC(=O)COc2ccccc2Cl)cn1`, for which the TGI in assay [9] was above 100 µM; in [1], above 87.4 µM; in assay [2] it was 64.9 µM; in assay [3], 67.4 µM; in assay [4], above 88.7 µM; in assay [5], above 77.2 µM. In addition, the TGI in [10] is above 100 µM; in assay [6], above 100 µM; in [7], above 92.4 µM; in assay [8] it was 98.5 µM.
In the case of `O=c1oc2c(ccc3c(O)cccc32)c2c1CCCC2`, the TGI in assay [9] is above 100 µM; in [1], above 100 µM; in assay [2] it was above 100 µM; in assay [3], 48.4 µM; in assay [4], above 100 µM; in assay [5], above 100 µM. In addition, the TGI in [10], in [6], in [7] and in assay [8] was above 100 µM in each case.
Take `Cc1ccc(S(=O)(=O)Nc2cc(Sc3ccccc3)c(O)c3ccccc23)cc1`: the GI50 was 12.3 µM in assay [9]; 18.4 µM in [1]; 1.57 µM in assay [2]; 7.99 µM in assay [3]; 1.96 µM in assay [4]; 13.1 µM in assay [5]. Also, the GI50 in assay [10] was 3.57 µM; in assay [7], 1.86 µM; in [8] it was 2.88 µM. Also, the TGI came out at 28.5 µM in assay [9]; 35.9 µM in assay [1]; 4.13 µM in assay [2]; 25.5 µM in assay [3]; 5.62 µM in [4]; 27.6 µM in assay [5]. The TGI in [10] stood at 13.1 µM; in assay [7], 3.67 µM; in assay [8], 10.9 µM.
As for `C/C([O-])=C(/c1nc(-c2ccc([N+](=O)[O-])o2)no1)[n+]1cc(C)ccc1C`, the TGI in assay [9] was 30.8 µM; in assay [1], 25.8 µM; in [2], 31.6 µM; in assay [3], 37.3 µM; in assay [4], above 100 µM; in assay [5], 14.4 µM. Further, the TGI in assay [10] was determined as 23.4 µM; in assay [6], 41.5 µM; in assay [7] it was 24.2 µM; in assay [8], 40 µM.
Take `BrC1=CN2C[n+]3cc(Br)c4ccccc4c3N=C2c2ccccc21`: the TGI is above 100 µM in assay [9]; 58.5 µM in assay [2]; 16.6 µM in assay [3]; 33.2 µM in [4]; 32.2 µM in assay [5]; 12.8 µM in assay [10]. In addition, the TGI was 32.4 µM in assay [6], 48.8 µM in [7] and above 100 µM in [8].
Take `CCOC(=O)/C(=N/Nc1ccc(Cl)cc1)N1C(=S)C=C(C)NN(C)C1=S`: the TGI in assay [9] was above 100 µM; in assay [1] it was above 100 µM; in assay [2], above 100 µM; in assay [4] it was above 100 µM; in assay [5] it was 50.2 µM; in assay [10] it was above 100 µM. Further, the TGI in assay [6], in assay [7] and in [8] was above 100 µM in each case.
In the case of `CCOC(=O)C(=O)Nc1cccc(C)c1C`, the TGI in [9], in [1], in [2], in assay [3], in assay [4] and in [5] was above 100 µM in each case. For the same compound, the TGI in [10], in [6], in assay [7] and in assay [8] was above 100 µM throughout.
As for `COc1cc2nc(N3CCC[C@@H](NC4=CC(=O)c5ccccc5C4=O)C3)nc(N)c2cc1OC`, the GI50 in assay [9] is 1.97 µM; in [1], 1.85 µM; in assay [2], 1.96 µM; in assay [3] it was 2.16 µM; in assay [4], 2.34 µM; in assay [5], 1.98 µM. Further, the GI50 is 1.77 µM in assay [10], 16.6 µM in assay [7] and 1.62 µM in [8]. The TGI was determined as 3.8 µM in [9]; 3.3 µM in [1]; 4.05 µM in assay [2]; 4.26 µM in assay [3]; 5.55 µM in assay [4]; 4.31 µM in assay [5]. For the same compound, the TGI in assay [10] was 3.44 µM; in [7] it was 38 µM; in [8], 3.25 µM.

For the origin of these results see PubChem BioAssay (NCI).
